# Laboratory results as given in article PMC9164233 (ACS Organic & Inorganic Au, 2022).
# How the values were obtained:
# Assay in all cases: Cell viability assay
# [1] = tested on: HMLER CD24^low/CD44^high cells; type: cell-based, human; conditions: 72 h
# [2] = tested on: HMLER CD24^high/CD44^low cells; type: cell-based; conditions: Homo sapiens, Epithelial cell, 72 h, read-out: Antiproliferative activity IC50, HMLER CD24^high/CD44^low
# MCF10A cells = type: cell-based; conditions: Homo sapiens, MCF-10A, 72 h, read-out: Antiproliferative activity IC50, MCF10A
compound,measurement,setting,value
"CC[C@@H](C(=O)[C@@H](C)[C@@H](O)[C@H](C)[C@@H]1O[C@@H]([C@@H](CC)C(=O)O)CC[C@@H]1C)[C@H]1O[C@]2(C=C[C@@H](O)[C@]3(CC[C@@](C)([C@H]4CC[C@](O)(CC)[C@H](C)O4)O3)O2)[C@H](C)C[C@@H]1C [Sal, salinomycin]",SI (HMLER) = IC50(HMLER CD24^high/CD44^low)/IC50(HMLER CD24^low/CD44^high),[1]; selectivity for the mesenchymal state,3.1
same,IC50,"[1]; Homo sapiens, read-out: Antiproliferative activity IC50, HMLER CD24^low/CD44^high",1390 ± 100 nM
same,IC50,[2],4.36 ± 0.5 µM
same,IC50,MCF10A cells,1130 ± 140 nM
